One data set in a line: Oral bioavailability. The note with it: in vivo.
The target in the next data set is T1, LOXL2 (Rattus norvegicus, UniProt B5DF27).
T1 construct: from tissue; host or cells: rat plasma and lung
T1 sequence (B5DF27 26-776): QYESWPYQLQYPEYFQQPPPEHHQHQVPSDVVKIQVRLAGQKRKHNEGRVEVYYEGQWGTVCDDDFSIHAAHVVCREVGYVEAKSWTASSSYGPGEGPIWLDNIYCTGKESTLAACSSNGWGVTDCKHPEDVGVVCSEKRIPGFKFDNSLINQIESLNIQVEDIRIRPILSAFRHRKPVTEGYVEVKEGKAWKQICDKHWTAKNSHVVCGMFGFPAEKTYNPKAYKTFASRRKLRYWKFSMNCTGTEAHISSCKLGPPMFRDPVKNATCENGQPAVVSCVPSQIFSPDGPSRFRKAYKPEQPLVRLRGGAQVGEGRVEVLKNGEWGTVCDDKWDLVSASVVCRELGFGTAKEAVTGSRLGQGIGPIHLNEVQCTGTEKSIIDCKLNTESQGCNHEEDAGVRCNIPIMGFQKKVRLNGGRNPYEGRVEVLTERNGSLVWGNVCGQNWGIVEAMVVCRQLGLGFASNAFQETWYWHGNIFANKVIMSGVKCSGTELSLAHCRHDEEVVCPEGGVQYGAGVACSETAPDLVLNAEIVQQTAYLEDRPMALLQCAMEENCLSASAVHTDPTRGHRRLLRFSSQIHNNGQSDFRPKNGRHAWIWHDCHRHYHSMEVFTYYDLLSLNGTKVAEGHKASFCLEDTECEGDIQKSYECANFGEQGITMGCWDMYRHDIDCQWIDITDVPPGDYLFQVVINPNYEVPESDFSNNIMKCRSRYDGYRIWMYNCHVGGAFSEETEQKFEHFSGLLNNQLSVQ
The data set is described as follows: Ex vivo LOXL2 activity after oral dosing in rats (PXS-5878/Simoa). The note with it: 30 mg/kg oral. The procedure: FIGURE 2 Characteristics of PXS‐5338 and inhibition of lysyl oxidase‐like 2 (LOXL2) enzymatic activity in vitro and in vivo. (A) Chemical structure of PXS‐5338. […] (B) Tissue levels of PXS‐5338 measured 1 and 4 h after a single oral dose of 30 mg/kg in the rat. […] Average data from three different animals. (C) Concentration‐dependent inhibition of native […] LOX and rh LOXL1‐4 in a standard Amplex Red assay with 30 min pre‐incubation; n ≥3 independent experiments, standard error of mean (SEM). (D) PXS‐5338 inhibits rh LOXL2 in a time‐dependent manner, with increasing potency observed upon longer incubation with the enzyme. LOXL2 activity data devised from Amplex Red assay using putrescine as substrate and varying pre‐incubation times; n ≥3 independent experiments, standard error of mean (SEM). […] AB0023 and the corresponding isotype control antibody GS834298 were kindly provided by Gilead. Concentration‐response curves for the pan‐LOX inhibitor BAPN and LOXL2‐selective inhibitor PXS‐5338 are included for comparison. Data represented as mean ± SD with n = 5/concentration. […] To enable translation of preclinical data into the clinic, human plasma was incubated with different concentrations of PXS‐5338 for 30 min and the PXS‐5878/Simoa® platform used to measure the residual activity. […]

For data set [1], the system named is streptozotocin and high fat diet-induced model of NASH. The data set is described as follows: Streptozotocin and high fat diet-induced mouse model of NASH. It counts as in vivo. The procedure: PXS-5338 was evaluated in a 14-week mouse model of NASH (Takakura, Koido et al. 2014), dosing therapeutically at 10 mg/kg from weeks 8-12 and increasing to 30 mg/kg from weeks 12-14. […] Telmisartan served as a positive pharmacological control.

Setting [2] is: 10 mg/kg weeks 8-12, 30 mg/kg weeks 12-14.

With `CC(C)c1c(Cc2ccc(S(C)(=O)=O)nc2)c2ncccc2n1C/C(F)=C/CN` [PXS‐5338], in “Oral bioavailability”, the Oral bioavailability result is listed as “good oral bioavailability”. The “Inhibition of LOXL2 activity in the lung (as in plasma)” value on LOXL2 (4 h) is on record as “almost complete inhibition”. On LOXL2 (24 h), the “Inhibition of LOXL2 activity remaining” value is on record as “no inhibition remained”.

In the case of `CC(C)c1c(Cc2ccc(S(C)(=O)=O)nc2)c2ncccc2n1C/C(F)=C/CN` [PXS-5338], in data set [1] (setting [2]), the “Collagen content (hydroxyproline)” value is given as “significant reduction in collagen content”; the “Fibrosis, fibrotic area (picrosirius red staining)” value was “significantly attenuated fibrosis”; the Hepatocyte ballooning result was “reduction in hepatocyte ballooning”; the “Immature and mature crosslinks (DHLNL and PYD)” value was “reduction in immature and mature crosslinks”. Also, the NASH scoring entry in data set [1] (10 mg/kg weeks 8-12, 30 mg/kg weeks 12-14, vs NASH group) is given as “significantly decreased NASH scoring”.
